Source: patent publication US4533662A, “2-Acylaminomethyl-1,4-benzodiazepine compounds and analgesic use” (Kali-Chemie Pharma GmbH, priority 1980, dated 1985)
Where a name gives a salt, the structure may show the parent alone.

Columns and labels:
mice [1] = experiment: Tail flick test with mice; format: in vivo, male and female mice; conditions: Mus musculus, sc, 0.5 h; s.c., 30 min after administration; reaction time 75% longer in 50% of animals
Protocol: 3. Tail flick test with mice.
The method is based on the procedure described by d'Amour and Smith in 1941. In contrast thereto there are used, in place of rats, fed male and female mice of a body weight of 16 g. to 25 g. 30 minutes before treatment with the compound to be tested each mouse is placed into a separate cylindrical container of such a size that the mouse cannot turn around and cannot move forward. Its tail extends outwardly of the container while resting in a narrow trough. A specific spot of the tail of each animal (at a distance of about 35 mm. from the tail root) is exposed to the heat of radiation of a lamp of known strength and temperature. The lamp is positioned directly underneath the tail. The time in seconds which the mouse needs in order to jerk the tail out of the range of the light ray, is determined twice, once 30 minutes and another time 15 minutes before the subcutaneous administration of the compound (10 mg./kg) to be tested. Mice, the reaction time of which deviates by more than 25%, are eliminated and disregarded. The reaction times are again measured 15 minutes and 30 minutes after administration. An increase in the reaction times by more than 75% of the average reaction time values measured before administration of the test compound to the same mouse is considered an analgesic effect. […] The ED50 is calculated according to the method of Litchfield and Wilcoxon (1949).

rats = experiment: Arthritis pain test with rats; format: in vivo, Male rats of the strain OFA; conditions: Rattus norvegicus, po, 3 hours after administration; protection (no or one squeak) in 50% of animals; read-out: Suppression of arthritis pain in rats ED50
Protocol: 2. Arthritis pain test with rats.
Male rats of the strain OFA weighing 160 g. to 180 g. are anesthesized by intraperitoneal administration of 20 mg./kg. of pentobarbital sodium. 0.1 ml. of suspension of Mycobacterium Smegmae (S I043) in paraffin oil (0.6 mg. of Mycobacterium in 0.1 ml. of paraffin oil) are injected intracutaneously into the left hind paw. Fourteen days thereafter, when a pronounced secondary arthritis has developed particularly in the right hind paw, the effects of the compound to be tested are investigated. 30 minutes before the administration of the compound to be tested, a control measurement is carried out by bending three times the ankle joint of the right hind paw and the number of squeaks produced by the animal are counted. […] Three hours after oral administration of the compound to be tested, the bending procedure is repeated. Animals which emit only one squeak or none at all, are considered to be protected against pain. Between 9 and 20 rats are tested per dose and the ED50 (95% confidence limit) is determined according to the method of Litchfield and Wilcoxon (1949). The dose which achieves protection in 50% of the treated animals is designated as the ED50.

mice [2] = experiment: Determination of the minimum toxic dose in mice; format: in vivo, male mice; conditions: p.o., observed 3 hours, deaths and symptoms up to 24 hours; maximum dose 300 mg./kg.
Protocol: 1. Determination of the minimum toxic dose.
Maximum doses of 300 mg./kg. of the compound to be tested are administered per os to male mice of a weight of 20 g. to 25 g. The animals are carefully observed for any toxicity symptoms during 3 hours. In addition thereto all symptoms and deaths are registered for a period of time of 24 hours after administration of the drug. Any accompanying symptoms are also observed and registered. When death or toxic symptoms are observed, more and more decreasing doses are administered to other mice, until no more toxic symptoms are encountered. The lowest dose which causes toxic symptoms is given as the minimum toxic dose.

Row | SMILES | ED50 (mice [1]) [mg/kg] | ED50 (rats) [mg/kg] | Minimum toxic dose in mice (mice [2]) [mg/kg]
1 | CN1c2ccccc2C(c2ccccc2)=NCC1CNC(=O)c1ccccc1 (centres unmarked) [Example 1, 1-Methyl-2-benzoyl amino methyl-5-phenyl-1H-2,3-dihydro-1,4-benzo diazepine] | 0.52 | 19 | > 300
2 | COc1ccc2c(c1)N(C)C(CNC(=O)c1ccccc1)CN=C2c1ccc(F)cc1 (centres unmarked) [Example 2, 8-Methoxy-1-methyl-2-benzoyl amino methyl-5-(4'-fluorophenyl)-1H-2,3-dihydro-1,4-benzo diazepine] | 0.64 | 2 | 50
3 | COc1ccc2c(c1)N(C)C(CNC(=O)c1ccccc1)CN=C2c1ccc(Cl)cc1Cl (centres unmarked) [Example 4, 8-Methoxy-1-methyl-2-benzoyl amino methyl-5-(2',4'-dichlorophenyl)-1H-2,3-dihydro-1,4-benzo diazepine] | 0.07 | 0.5 | 10
4 | CN1c2ccccc2C(c2ccccc2)=NCC1CNC(=O)c1ccc(Cl)cc1Cl (centres unmarked) [Example 18] |  | 7.5 | > 300
5 | CN1c2ccccc2C(c2ccccc2)=NCC1CNC(=O)c1ccc(Cl)c(Cl)c1 (centres unmarked) [Example 19, 1-Methyl-2-(3,4-dichlorobenzoylaminomethyl)-5-phenyl-1H--2,3-dihydro-1,4-benzo diazepine hydrochloride] | 1 | ~2.3 | > 300
6 | COc1ccc(C(=O)NCC2CN=C(c3ccccc3)c3ccccc3N2C)cc1 (centres unmarked) [Example 20] | 4.6 | ~4 | 300
7 | Cc1ccc(C(=O)NCC2CN=C(c3ccccc3)c3ccccc3N2C)cc1 (centres unmarked) [Example 25] | 2.5 | 3.2 | 
8 | CN1c2ccccc2C(c2ccccc2)=NCC1CNC(=O)c1ccc([N+](=O)[O-])cc1 (centres unmarked) [Example 28] |  | 0.6 | > 300
9 | CN1c2ccccc2C(c2ccccc2F)=NCC1CNC(=O)c1ccc(C#N)cc1 (centres unmarked) [Example 29] | 21 | 1.7 | 300
10 | COc1cccc(C(=O)NCC2CN=C(c3ccccc3F)c3ccccc3N2C)c1 (centres unmarked) [Example 31] | 1.8 | 10 to 18 | > 300
11 | COc1ccc(C(=O)NCC2CN=C(c3ccccc3F)c3ccccc3N2C)cc1 (centres unmarked) [Example 32] | 4.2 | 1.7 | 300
12 | CN1c2ccccc2C(c2ccccc2F)=NCC1CNC(=O)c1ccc(C(F)(F)F)cc1 (centres unmarked) [Example 33] | 1.4 | 5.6 to 10 | > 300
13 | CN1c2ccccc2C(c2ccccc2F)=NCC1CNC(=O)c1cccc(C#N)c1 (centres unmarked) [Example 35] | 13 | 9 | 
14 | COc1ccc(C(=O)NCC2CN=C(c3ccc(F)cc3)c3ccccc3N2C)cc1 (centres unmarked) [Example 40] |  | 11 | > 300
15 | Cc1ccc2c(c1)C(c1ccccc1F)=NCC(CNC(=O)c1ccccc1)N2C (centres unmarked) [Example 47] | 5.6 | ~13 | > 300
16 | CN1c2cc3c(cc2C(c2ccccc2)=NCC1CNC(=O)c1ccccc1)OCO3 (centres unmarked) [Example 49] | 0.56 | 2.5 | 100
17 | COc1ccc2c(c1)N(C)C(CNC(=O)c1ccccc1)CN=C2c1cccc(C(F)(F)F)c1 (centres unmarked) [Example 55] | 5.6 to 10 | 10 to 18 | 
18 | COc1ccc2c(c1)N(C)C(CNC(=O)c1ccccc1)CN=C2c1cccc(F)c1 (centres unmarked) [Example 58] | 1.6 | ~18 | 300
19 | CN1c2cc(F)ccc2C(c2ccccc2)=NCC1CNC(=O)c1ccccc1 (centres unmarked) [Example 59] | 1 | 9.7 | 300
20 | COc1ccc2c(c1)N(C)C(CNC(=O)c1ccccc1)CN=C2c1ccccc1F (centres unmarked) [Example 60] | 0.32 | 3.5 | 300
21 | COc1ccc(CC(=O)NCC2CN=C(c3ccccc3)c3cc(Cl)ccc3N2C)cc1OC (centres unmarked) [Example 112] | 20 | 10 | 50
22 | COc1ccc(CC(=O)NCC2CN=C(c3ccccc3)c3cc4c(cc3N2C)OCO4)cc1OC (centres unmarked) [Example 113] | < 5.6 | 18 to 32 | 100
23 | CN1c2ccccc2C(c2ccccc2F)=NCC1CNC(=O)Cc1ccccc1Cl (centres unmarked) [Example 117] | 13 | 6 | > 300
24 | CCN1c2ccccc2C(c2ccccc2F)=NCC1CNC(=O)c1ccc(C(F)(F)F)cc1 (centres unmarked) [Example 154] |  | 2 | 
25 | CCN1c2ccccc2C(c2ccccc2)=NCC1CNC(=O)c1ccc(C(F)(F)F)cc1 (centres unmarked) [Example 155] |  | ~2 | 
